Laboratory results: patent US12077503B2, “Substituted cyclic amides and their use as herbicides” (FMC CORPORATION, priority 2015, dated 2024)

Key:
Format in all cases: in vivo
[1] = system: Kochia (Kochia scoparia); assay: Test A preemergence; details: Bassia scoparia, pre-emergence, 240 h, preemergence, 0 to 100 scale where 0 is no effect and 100 is complete control, read-out: Kochia plant response rating; for pest or weed control at 125 g/ha: 125 g ai/ha, approx. 10 d; for pest or weed control at 500 g/ha: 500 g ai/ha
Method in brief: (§1)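 Seeded soil received test chemicals as a preemergence directed spray, and seedlings at one to two leaves, 2–10 cm tall, received them postemergence, in a non-phytotoxic, surfactant-containing solvent mixture. Pots were held in a greenhouse for approximately 10 d, then rated for injury from 0, no effect, to 100, complete control.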

[2] = system: barnyardgrass (Echinochloa crus-galli); assay: Test A preemergence; details: Echinochloa crus-galli, pre-emergence, 240 h, preemergence, 0 to 100 scale where 0 is no effect and 100 is complete control, read-out: Barnyardgrass plant response rating; for pest or weed control at 125 g/ha: 125 g ai/ha, approx. 10 d; for pest or weed control at 500 g/ha: 500 g ai/ha
Method in brief: as §1

[3] = system: giant foxtail (Setaria faberii); assay: Test A preemergence; details: Setaria faberi, pre-emergence, 240 h, preemergence, 0 to 100 scale where 0 is no effect and 100 is complete control, read-out: Foxtail, Giant plant response rating; for pest or weed control at 125 g/ha: 125 g ai/ha, approx. 10 d; for pest or weed control at 500 g/ha: 500 g ai/ha
Method in brief: as §1

[4] = system: pigweed (Amaranthus retroflexus); assay: Test A preemergence; details: Amaranthus retroflexus, pre-emergence, 240 h, preemergence, 0 to 100 scale where 0 is no effect and 100 is complete control, read-out: Pigweed plant response rating; for pest or weed control at 125 g/ha: 125 g ai/ha, approx. 10 d; for pest or weed control at 500 g/ha: 500 g ai/ha
[5] = system: ragweed (common ragweed, Ambrosia elatior); assay: Test A preemergence; details: Ambrosia artemisiifolia, pre-emergence, 240 h, preemergence, 0 to 100 scale where 0 is no effect and 100 is complete control, read-out: Ragweed plant response rating; for pest or weed control at 125 g/ha: 125 g ai/ha, approx. 10 d; for pest or weed control at 500 g/ha: 500 g ai/ha
Method in brief: as §1

[6] = system: ryegrass, Italian (Italian ryegrass, Lolium multiflorum); assay: Test A preemergence; details: Lolium multiflorum, pre-emergence, 240 h, preemergence, 0 to 100 scale where 0 is no effect and 100 is complete control, read-out: Ryegrass, Italian plant response rating; for pest or weed control at 125 g/ha: 125 g ai/ha, approx. 10 d; for pest or weed control at 500 g/ha: 500 g ai/ha
Method in brief: as §1

[7] = system: Kochia (Kochia scoparia); assay: Test A postemergence; details: Bassia scoparia, post-emergence, 240 h, postemergence; for pest or weed control at 125 g/ha: 125 g ai/ha, visual injury vs untreated controls after approx. 10 d, 0 = no effect, 100 = complete control, read-out: Kochia plant response rating (0 to 100 scale); for pest or weed control at 500 g/ha: 500 g ai/ha, 0 to 100 scale, 0 is no effect, 100 is complete control, read-out: Kochia plant response rating
Method in brief: as §1

[8] = system: barnyardgrass (Echinochloa crus-galli); assay: Test A postemergence; details: Echinochloa crus-galli, post-emergence, 240 h, postemergence; for pest or weed control at 125 g/ha: 125 g ai/ha, visual injury vs untreated controls after approx. 10 d, 0 = no effect, 100 = complete control, read-out: Barnyardgrass plant response rating (0 to 100 scale); for pest or weed control at 500 g/ha: 500 g ai/ha, 0 to 100 scale, 0 is no effect, 100 is complete control, read-out: Barnyardgrass plant response rating
Method in brief: as §1

[9] = system: blackgrass (Alopecurus myosuroides); assay: Test A postemergence; details: Alopecurus myosuroides, post-emergence, 240 h, postemergence; for pest or weed control at 125 g/ha: 125 g ai/ha, visual injury vs untreated controls after approx. 10 d, 0 = no effect, 100 = complete control, read-out: Blackgrass plant response rating (0 to 100 scale); for pest or weed control at 500 g/ha: 500 g ai/ha, 0 to 100 scale, 0 is no effect, 100 is complete control, read-out: Blackgrass plant response rating
Method in brief: as §1

[10] = system: pigweed (Amaranthus retroflexus); assay: Test A postemergence; details: Amaranthus retroflexus, post-emergence, 240 h, postemergence; for pest or weed control at 125 g/ha: 125 g ai/ha, visual injury vs untreated controls after approx. 10 d, 0 = no effect, 100 = complete control, read-out: Pigweed plant response rating (0 to 100 scale); for pest or weed control at 500 g/ha: 500 g ai/ha, 0 to 100 scale, 0 is no effect, 100 is complete control, read-out: Pigweed plant response rating
Method in brief: as §1

[11] = system: barnyardgrass (Echinochloa crus-galli); assay: Test B flooded paddy test; details: Echinochloa crus-galli, 250 g ai/ha, Flood; 0 to 100 scale where 0 is no effect and 100 is complete control; read-out: Barnyardgrass plant response rating
Method in brief: (§2)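 Flooding to 3 cm over soil accompanied treatment, which consisted of adding compound to the standing water around 2-leaf plants; depth was then maintained. Visual assessment versus controls followed at 13 to 15 d (scale 0–100, 0 meaning no effect).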

[12] = system: ducksalad (Heteranthera limosa); assay: Test B flooded paddy test; details: Heteranthera limosa, 250 g ai/ha, Flood; 0 to 100 scale where 0 is no effect and 100 is complete control; read-out: Ducksalad plant response rating
Method in brief: as §2

[13] = system: rice (Oryra sativa); assay: Test B flooded paddy test; details: Oryza sativa, 250 g ai/ha, Flood; 0 to 100 scale where 0 is no effect and 100 is complete control; read-out: Rice plant response rating
Method in brief: as §2

[14] = system: sedge, umbrella (small-flower umbrella sedge, Cyperus difformis); assay: Test B flooded paddy test; details: Cyperus difformis, 250 g ai/ha, Flood; 0 to 100 scale where 0 is no effect and 100 is complete control; read-out: Sedge, Umbrella plant response rating
Method in brief: as §2

| Structure (SMILES) | pest or weed control at 125 g/ha [1] [%] | pest or weed control at 500 g/ha [1] [%] | pest or weed control at 125 g/ha [2] [%] | pest or weed control at 500 g/ha [2] [%] | pest or weed control at 125 g/ha [3] [%] | pest or weed control at 500 g/ha [3] [%] | pest or weed control at 125 g/ha [4] [%] | pest or weed control at 500 g/ha [4] [%] | pest or weed control at 125 g/ha [5] [%] | pest or weed control at 500 g/ha [5] [%] | pest or weed control at 125 g/ha [6] [%] | pest or weed control at 500 g/ha [6] [%] | pest or weed control at 125 g/ha [7] [%] | pest or weed control at 500 g/ha [7] [%] | pest or weed control at 125 g/ha [8] [%] | pest or weed control at 500 g/ha [8] [%] | pest or weed control at 125 g/ha [9] [%] | pest or weed control at 500 g/ha [9] [%] | pest or weed control at 125 g/ha [10] [%] | pest or weed control at 500 g/ha [10] [%] | also measured |
| --- | --- | --- | --- | --- | --- | --- | --- | --- | --- | --- | --- | --- | --- | --- | --- | --- | --- | --- | --- | --- | --- |
| CCc1cc([C@H]2CN(C)C(=O)[C@@H]2C(=O)Nc2ccccc2F)cs1 [Compound 1156] | 70 | 80 | 90 | 90 | 90 | 100 | 0 | 20 | 100 | 100 | 20 | 30 | 0 | 20 | 90 | 90 | 0 | 40 | 0 | 0 | pest or weed control at 250 g/ha [11]: 40%; pest or weed control at 250 g/ha [12]: 100%; pest or weed control at 250 g/ha [13]: 20%; pest or weed control at 250 g/ha [14]: 0% |
| O=C1NCC[C@H](c2cccc(Cl)c2)[C@H]1C(=O)Nc1ccccc1F [Compound 1159] | 0 | 30 | 60 | 90 | 70 | 90 | 0 | 0 | 0 | 0 | 0 | 0 | 0 | 0 | 90 | 90 | 0 | 0 | 0 | 20 | pest or weed control at 250 g/ha [11]: 0%; pest or weed control at 250 g/ha [12]: 70%; pest or weed control at 250 g/ha [13]: 0%; pest or weed control at 250 g/ha [14]: 0% |
| CCc1ccc([C@H]2CNC(=O)[C@@H]2C(=O)Nc2cccc(F)c2C)cc1 [Compound 1177] | 30 | 30 | 70 | 100 | 70 | 100 | 0 | 20 | 0 | 30 | 30 | 70 | 0 | 0 | 70 | 90 | 60 | 70 | 0 | 0 | pest or weed control at 250 g/ha [11]: 70%; pest or weed control at 250 g/ha [12]: 95%; pest or weed control at 250 g/ha [13]: 20%; pest or weed control at 250 g/ha [14]: 0% |
